# Laboratory results reported in patent US10829527B2, “Conjugates of islet neogenesis peptides and analogs, and methods thereof” (SHENZHEN HIGHTIDE BIOPHARMACEUTICAL, LTD., priority 2016, dated 2020).
# Legend:
# [1] = tested on: STZ induced diabetic mice; experiment: Oral glucose tolerance test (OGTT) in STZ induced diabetic mice model; assay type: in vivo, C57BL/6J mice; settings: 250 nM/kg, glucose AUC T0~120 min, day 10 of treatment, 6 hours fasted
# Method: (§1) After acclimatization in the animal facility for one week, 6-8 weeks old C57BL/6J mice were administered high dose STZ at 150 mg/kg in citrate buffer to establish a T1D animal model. Mice with blood glucose greater than 16.7 mmol/L at 10 days post last STZ injection were included in the study. These mice were then treated with INGAP-PP or GLP-1 or Peptide 2 at the dose of 250 nM/kg for 10 days before sacrifices. One additional group of diabetic mice were administered with saline as model control groups. Blood glucose levels were measured on day 8. Ten days post the last dosing of test agents, an oral glucose tolerance test (OGTT) was performed in 6 hours fasted animals. Blood samples obtained from the tail for glucose determination were detected with an ACCU-CHEK™ glucometer (Roche, ACCU-CHEK® Performa)
# (§2) The blood glucose (BG, mM) present were measured on day 8 of treatment. The area under curve (AUC) of glucose (T0˜120 min) measured in an oral glucose tolerance test (OGTT) on day 10 of treatment.
# pancreatic islets = experiment: Glucose-stimulated insulin secretion (GSIS) of isolated islets; assay type: cell-based, C57BL/6J mice; settings: for Insulin Secretion: 16.7 mM glucose + 10 nM peptide, groups of 5 islets, 60 min incubation; for Insulin release compared with islets cultured without the addition of peptides: 16.7 mM glucose, 10 nM peptide, result in words
# Method: The pancreases were procured from male adult C57BL/6J mice. After 7 days acclimation, the animals were sacrificed by cervical dislocation and the entire pancreas was removed and digested with collagenase to isolate islets. After digestion, islets were maintained at 37° C. in RPMI 1640 (Carlsbad Calif., USA) pH 7.4, containing 10% (v/v) fetal calf serum, 1% penicillin/streptomycin, and 10 mM glucose in a humid atmosphere (5% CO2/95% O2), without the addition of any compound (control), or with the addition of 10 nM glucagon like peptide-1 (GLP-1); or 10 nM INGAP-PP; or 10 nM Peptide 1, Peptide 2 or Peptide 3, as summarized in Table 5 below.
# Cultured islets were rinsed in Krebs-Ringer bicarbonate buffer (KRB), pH 7.4, previously gassed with a mixture of CO2/O2 (5/95%), and pre-incubated in 1.0 mL of KRB containing 0.5% (w/v) BSA and 2.8 mM glucose at 37° C. for 45 min. After this period, groups of 5 islets were incubated in 0.6 mL KRB with the addition of 2.8 or 16.7 mM glucose, with or without the addition of peptides for 60 min. At the end of the incubation period, aliquots of the medium were collected for insulin quantitation.
# [2] = tested on: STZ induced diabetic mice; experiment: Blood glucose in streptozotocin (STZ) induced diabetic mice model; assay type: in vivo, C57BL/6J mice; settings: 250 nM/kg, day 8 of treatment
# Method: as §1, §2
substance,measurement,setting,value
glucagon like peptide-1 [GLP-1],AUC of OGTT (Day 10),[1],3054.7 ± 728.9
same,Insulin Secretion,pancreatic islets,5.4 ± 2.1 ng/islet/hour
same,Insulin release compared with islets cultured without the addition of peptides,pancreatic islets,significantly more insulin
same,Blood Glucose (Day 8),[2],22.1 ± 6.8 mM
H-IGLHDPSHGTLPNGS-OH (also: D-Isoleucine at 1) [INGAP-PP],AUC of OGTT (Day 10),[1],3207.6 ± 801.5
same,Insulin Secretion,pancreatic islets,2.5 ± 1.0 ng/islet/hour
same,Insulin release compared with islets cultured without the addition of peptides,pancreatic islets,no stimulation
same,Blood Glucose (Day 8),[2],25.9 ± 9.1 mM
